Measured values from ChEMBL document CHEMBL1201862, “PubChem BioAssay data set” (2004).
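Tested at 5 concentrations; 48 h exposure; 96-well plates; endpoints linearly interpolated, else capped at highest concentration. At the GI50, growth is halved.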 Active and inactive are the calls of the source. Rule as the data show it: active = GI50 up to about 1.1 µM and inactive = higher.

Experiments:
Experiment in all cases: NCI-60 cell line screen, 48 h
RPMI-8226 = system: RPMI-8226
U-251 = system: U-251
SR = system: SR
EKVX = system: EKVX
OVCAR-4 = system: OVCAR-4
LOX IMVI = system: LOX IMVI
NCI/ADR-RES = system: NCI/ADR-RES
HCT-116 = system: HCT-116
CAKI-1 = system: CAKI-1
SNB-75 = system: SNB-75
KM12 = system: KM12
PC-3 = system: PC-3
Malme-3M = system: Malme-3M
HL-60 = system: HL-60
OVCAR-5 = system: OVCAR-5
HOP-62 = system: HOP-62
ACHN = system: ACHN
OVCAR-8 = system: OVCAR-8
MCF7 = system: MCF7
NCI-H23 = system: NCI-H23
SF-295 = system: SF-295
HCC 2998 = system: HCC 2998
UO-31 = system: UO-31
CCRF-CEM = system: CCRF-CEM
HOP-92 = system: HOP-92
NCI-H460 = system: NCI-H460
NCI-H226 = system: NCI-H226
NCI-H522 = system: NCI-H522
M14 = system: M14
RXF 393 = system: RXF 393
SNB-19 = system: SNB-19
DU-145 = system: DU-145
IGROV-1 = system: IGROV-1
MDA-N = system: MDA-N
K562 = system: K562
BT-549 = system: BT-549
UACC-257 = system: UACC-257
MDA-MB-435 = system: MDA-MB-435
HCT-15 = system: HCT-15
SK-MEL-2 = system: SK-MEL-2
TK-10 = system: TK-10
SN12C = system: SN12C
MOLT-4 = system: MOLT-4
Hs-578T = system: Hs-578T
A498 = system: A498
HT-29 = system: HT-29
MDA-MB-231 = system: MDA-MB-231
T47D = system: T47D
SK-OV-3 = system: SK-OV-3
SK-MEL-5 = system: SK-MEL-5
A549 = system: A549
COLO 205 = system: COLO 205
786-0 = system: 786-0
UACC-62 = system: UACC-62
SK-MEL-28 = system: SK-MEL-28
SF-268 = system: SF-268
SW-620 = system: SW-620

In the case of `O=C(O)CSc1nnc(CCCCCCCCc2nnc(SCC(=O)O)o2)o1`, the GI50 (RPMI-8226) is reported as > 100 µM (inactive), the GI50 (U-251) is reported as > 100 µM (inactive) and the GI50 (SR) is reported as > 100 µM (inactive). The GI50 (EKVX) was > 100 µM (inactive), the GI50 (OVCAR-4) was > 100 µM (inactive) and the GI50 (LOX IMVI) was > 100 µM (inactive). The GI50 (NCI/ADR-RES) was > 100 µM (inactive), the GI50 (HCT-116) was > 100 µM (inactive) and the GI50 (CAKI-1) was > 100 µM (inactive). The GI50 (SNB-75) was 21.9 µM (inactive), the GI50 (KM12) was > 100 µM (inactive) and the GI50 (PC-3) was > 100 µM (inactive). The GI50 (Malme-3M) was > 100 µM (inactive), the GI50 (HL-60) was > 100 µM (inactive) and the GI50 (OVCAR-5) was > 100 µM (inactive). For the same molecule, the GI50 (HOP-62) was > 100 µM (inactive), the GI50 (ACHN) was > 100 µM (inactive) and the GI50 (OVCAR-8) was 55.5 µM (inactive). For the same molecule, the GI50 (MCF7) was > 100 µM (inactive), the GI50 (NCI-H23) was > 100 µM (inactive) and the GI50 (SF-295) was > 100 µM (inactive). For the same molecule, the GI50 (HCC 2998) was > 100 µM (inactive), the GI50 (UO-31) was > 100 µM (inactive) and the GI50 (CCRF-CEM) was > 100 µM (inactive). For the same molecule, the GI50 (HOP-92) was 79.8 µM (inactive), the GI50 (NCI-H460) was > 100 µM (inactive) and the GI50 (NCI-H226) was > 100 µM (inactive). For the same molecule, the GI50 (NCI-H522) was > 100 µM (inactive), the GI50 (M14) was > 100 µM (inactive) and the GI50 (RXF 393) was 38.5 µM (inactive). The GI50 (SNB-19) was > 100 µM (inactive), the GI50 (DU-145) was > 100 µM (inactive) and the GI50 (IGROV-1) was > 100 µM (inactive). For the same molecule, the GI50 (MDA-N) was > 100 µM (inactive), the GI50 (K562) was > 100 µM (inactive) and the GI50 (BT-549) was > 100 µM (inactive). The GI50 (UACC-257) was > 100 µM (inactive), the GI50 (MDA-MB-435) was > 100 µM (inactive) and the GI50 (HCT-15) was greater than 100 µM. For the same molecule, the GI50 (SK-MEL-2) was > 100 µM (inactive), the GI50 (TK-10) was > 100 µM (inactive) and the GI50 (SN12C) was > 100 µM (inactive). For the same molecule, the GI50 (MOLT-4) was > 100 µM (inactive), the GI50 (Hs-578T) was 82.2 µM (inactive) and the GI50 (A498) was > 100 µM (inactive). The GI50 (HT-29) was > 100 µM (inactive), the GI50 (MDA-MB-231) was > 100 µM (inactive) and the GI50 (T47D) was > 100 µM (inactive). The GI50 (SK-OV-3) was > 100 µM (inactive), the GI50 (SK-MEL-5) was > 100 µM (inactive) and the GI50 (A549) was > 100 µM (inactive). For the same molecule, the GI50 (COLO 205) was > 100 µM (inactive), the GI50 (786-0) was > 100 µM (inactive) and the GI50 (UACC-62) was > 100 µM (inactive). For the same molecule, the GI50 (SK-MEL-28) was > 100 µM (inactive), the GI50 (SF-268) was > 100 µM (inactive) and the GI50 (SW-620) was > 100 µM (inactive).
